The target of series [1] is T1, AdhE2-ADH (alcohol dehydrogenase domain of bifunctional AdhE2, wild type, GI 499193180, SEQ ID NO: 41) (Clostridium acetobutylicum, UniProt Q9ANR5).
T1 construct: alcohol dehydrogenase activity (C-terminal domain) measured
T1 sequence (Q9ANR5 1-858): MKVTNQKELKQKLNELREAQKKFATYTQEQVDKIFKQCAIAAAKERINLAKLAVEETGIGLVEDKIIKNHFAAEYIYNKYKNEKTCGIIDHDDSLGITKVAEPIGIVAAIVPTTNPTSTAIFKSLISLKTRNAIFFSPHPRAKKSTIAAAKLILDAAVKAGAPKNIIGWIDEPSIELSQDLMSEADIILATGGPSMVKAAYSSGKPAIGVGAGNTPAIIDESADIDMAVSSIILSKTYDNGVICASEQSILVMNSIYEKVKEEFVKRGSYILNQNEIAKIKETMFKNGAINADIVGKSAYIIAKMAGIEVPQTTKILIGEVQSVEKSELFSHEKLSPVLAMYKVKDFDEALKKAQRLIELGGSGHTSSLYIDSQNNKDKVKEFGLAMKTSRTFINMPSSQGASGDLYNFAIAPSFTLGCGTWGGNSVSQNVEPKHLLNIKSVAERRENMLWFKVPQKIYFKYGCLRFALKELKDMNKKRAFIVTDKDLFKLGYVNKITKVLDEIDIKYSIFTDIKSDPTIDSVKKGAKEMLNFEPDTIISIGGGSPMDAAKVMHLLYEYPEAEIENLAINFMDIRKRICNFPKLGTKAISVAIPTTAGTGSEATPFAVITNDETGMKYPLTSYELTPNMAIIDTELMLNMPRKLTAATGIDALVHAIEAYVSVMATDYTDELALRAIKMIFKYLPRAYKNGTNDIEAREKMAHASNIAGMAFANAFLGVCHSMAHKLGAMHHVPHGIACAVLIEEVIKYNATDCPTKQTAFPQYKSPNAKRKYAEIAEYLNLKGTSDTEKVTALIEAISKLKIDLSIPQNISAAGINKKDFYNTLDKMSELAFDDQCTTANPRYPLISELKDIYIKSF
As to the kind of experiment: In vitro kinetics of aldehyde/alcohol dehydrogenases, oxidation of NADH at 340 nm (alcohol dehydrogenase domain of AdhE2). In kind it is biochemical. The procedure:
(§1) Activity of ALDH proteins was measured by monitoring the oxidation of NADH at 340 nm at 30° C. The assay mixture (400 μL) contained 100 μM NADH in 100 mM Tris 1 mM DTT pH 7.5. The reaction was initiated by the addition of substrate. Kinetic parameters (kcat, KM) were determined by fitting the data using Microcal Origin to the equation: vo=vmax [S]/(KM+[S]), where v is the initial rate and [S] is the substrate concentration. Data are reported as mean±s.e. (n=3) unless otherwise noted with standard error derived from the nonlinear curve fitting. Error bars on graphs represent mean±s.d. (n=3). Error in kcat/KM is calculated by propagation of error from the individual kinetic parameters.
(§2) To further explore the potential for expressing monofunctional aldehyde and alcohol dehydrogenases in host cells for the production of alcohols, various aldehyde and alcohol dehydrogenases were purified and isolated to investigate their in vitro kinetic behavior with various C4 and C2 substrates. In particular, the monofunctional aldehyde dehydrogenase identified in FIG. 3 above (GI 150018649, also referred to as ALDH16) was purified (FIG. 4A and FIG. 4B) and the in vitro kinetic behavior of a purified Strep-ALDH16 protein with various C4 and C2 substrates was tested.

The target of series [2] is T2, ALDH16 (monofunctional aldehyde dehydrogenase, GI 150018649, SEQ ID NO: 16; Strep-ALDH16) (Clostridium diolis, UniProt A0AAV3W6M8).
T2 sequence (A0AAV3W6M8 1-468): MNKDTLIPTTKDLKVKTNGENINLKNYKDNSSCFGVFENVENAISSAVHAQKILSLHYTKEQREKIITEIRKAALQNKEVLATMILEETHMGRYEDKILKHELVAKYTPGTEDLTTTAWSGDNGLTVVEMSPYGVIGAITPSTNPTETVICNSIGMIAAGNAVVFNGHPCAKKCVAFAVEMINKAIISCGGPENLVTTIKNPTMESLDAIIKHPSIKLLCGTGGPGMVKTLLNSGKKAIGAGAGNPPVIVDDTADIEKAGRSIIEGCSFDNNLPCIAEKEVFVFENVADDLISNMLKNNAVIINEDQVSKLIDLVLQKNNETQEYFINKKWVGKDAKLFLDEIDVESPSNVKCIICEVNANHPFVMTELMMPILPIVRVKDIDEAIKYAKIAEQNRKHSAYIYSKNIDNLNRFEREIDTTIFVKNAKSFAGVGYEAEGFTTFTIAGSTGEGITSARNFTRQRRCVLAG
The experiment in a line: In vitro kinetics of aldehyde/alcohol dehydrogenases, oxidation of NADH at 340 nm (purified Strep-ALDH16). In kind it is biochemical. As for the experimental part: as §1, §2

The target of series [3] is T3, AdhE2-ALDH (aldehyde dehydrogenase domain of bifunctional AdhE2, wild type, GI 499193180, SEQ ID NO: 41) (Clostridium acetobutylicum, UniProt Q9ANR5).
T3 sequence (Q9ANR5 1-858): T1 sequence (Q9ANR5 1-858)
The experiment in a line: In vitro kinetics of aldehyde/alcohol dehydrogenases, oxidation of NADH at 340 nm (aldehyde dehydrogenase domain of AdhE2).

Substrate in series [4]: CC=O
As to the kind of experiment: In vitro kinetics of aldehyde/alcohol dehydrogenases, oxidation of NADH at 340 nm (alcohol dehydrogenase domain of AdhE2). In kind it is biochemical. As to conditions: other: 100 μM NADH, 100 mM Tris, 1 mM DTT, pH 7.5, 30° C., mean±s.e. (n=3). As for the experimental part: as §1, §2

Substrate in series [5]: CCCC=O
The description is as above. Type of series: biochemical. As to conditions: other: 100 μM NADH, 100 mM Tris, 1 mM DTT, pH 7.5, 30° C., mean±s.e. (n=3). The procedure:
as §1, §2

In series [6] the test system is butanol production pathway. The experiment in a line: Butanol and ethanol production in E. coli MC1.24 (quintuple KO) with bifunctional or monofunctional dehydrogenases (FIG. 5). Type of series: cell-based. The settings on record: E. coli MC1.24, FIG. 5. The text has this:
FIG. 5 illustrates genetically engineered improvement of a butanol production pathway composed of monofunctional aldehyde and alcohol dehydrogenases. The fuel titer of either butanol or ethanol in E. coli cells expressing the biosynthetic pathway shown in FIG. 6A with various particular alcohol and/or aldehyde dehydrogenases is shown. Specifically, E. coli MC1.24 (quintuple KO) was transformed with pT533-phaA.HBD, pBBR2-aceE.F.lpd and 1: pCWO.trc-ter-adhE2, 2: pCDF3-aldh16, 3: pCWori-ter-aldh16.CaADH, or 4: pCWO.trc-ter-aldh16.CaADH as indicated.
. The cultures were grown at 37° C. in a rotary shaker (200 r.p.m.) and induced with IPTG (1.0 mM) at OD600=0.35-0.45. At this time, the growth temperature was reduced to 30° C., and the culture flasks were sealed with Parafilm M (Pechiney Plastic Packaging) to prevent product evaporation for aerobic cultures. Anaerobic cultures were sealed and the headspace was sparged with argon for 5 minutes immediately follow induction. Aerobic cultures were unsealed for 10 to 30 min every 24 h then resealed with Parafilm M, and additional glucose (1% (w/v)) was added 1 day post-induction. Samples were quantified after 3 d of cell culture.
Samples (2 ml) were removed from cell culture and cleared of biomass by centrifugation at 20,817 g for 2 min using an Eppendorf 5417R centrifuge. The supernatant or cleared medium sample was then mixed in a 9:1 ratio with an aqueous solution containing the isobutanol internal standard (10,000 mg l^−1). These samples were then analyzed on a Trace GC Ultra (Thermo Scientific) using an HP-5MS column (0.25 mm×30 m, 0.25 μM film thickness, J & W Scientific). The oven program was as follows: 75° C. for 3 min, ramp to 300° C. at 45° C. min^−1, 300° C. for 1 min. n-Butanol was quantified by flame ionization detection (FID) (flow: 350 ml min^−1 air, 35 ml min^−1 H2 and 30 ml min^−1 helium). Samples containing n-butanol levels below 500 mg 1^−1 were requantified after extraction of the cleared medium sample or standard (500 μl) with toluene (500 μl) containing the isobutanol internal standard (100 mg 1^−1) using a Digital Vortex Mixer (Fisher) for 5 min set at 2,000. The organic layer was then quantified using the same GC parameters with a DSQII single-quadrupole mass spectrometer (Thermo Scientific) using single-ion monitoring (m/z 41 and 56) concurrent with full scan mode (m/z 35-80). Samples were quantified relative to a standard curve of 2, 4, 8, 16, 31, 63, 125, 250, 500 mg 1^−1 n-butanol for MS detection or 125, 250, 500, 1,000, 2,000, 4,000, 8,000 mg 1^−1 n-butanol for FID detection. Standard curves were prepared freshly during each run and normalized for injection volume using the internal isobutanol standard (100 or 1,000 mg 1^−1 for MS and FID, respectively). […]

Where [7] appears, read: 100 μM NADH, 100 mM Tris, 1 mM DTT, pH 7.5, 30° C., mean±s.e. (n=3).

This is an account of results in patent publication US20180291353A1, “MONOFUNCTIONAL ALDEHYDE AND ALCOHOL DEHYDROGENASES FOR PRODUCTION OF FUELS AND COMMODITY CHEMICALS” (The Regents of the University of California, priority 2015, published 2018).

`CC=O` [acetaldehyde]: in series [1] (setting [7]), the kcat amounted to 5.6 ± 0.1 s⁻¹. In series [1] (from Table 4), the “preference for acetaldehyde over butyraldehyde” value is given as 1.7 fold.
Turning to `CC(=O)SCCNC(=O)CCNC(=O)[C@H](O)C(C)(C)COP(=O)(O)OP(=O)(O)OC[C@H]1O[C@@H](n2cnc3c(N)ncnc32)[C@H](O)[C@@H]1OP(=O)(O)O` [acetyl-CoA], the “higher KM for acetyl-CoA” value in series [2] (compared with ALDH domain of AdhE2) is on record as 5 fold.
Turning to `CCCC(=O)SCCNC(=O)CCNC(=O)[C@H](O)C(C)(C)COP(=O)(O)OP(=O)(O)OC[C@H]1O[C@@H](n2cnc3c(N)ncnc32)[C@H](O)[C@@H]1OP(=O)(O)O` [butyryl-CoA], the catalytic constant (kcat) in series [2] (setting [7]) was 0.11 ± 0.01 s⁻¹; in series [3] (setting [7]) it was 1.2 ± 0.1 s⁻¹. Moreover, the “preference (specificity) for butyryl-CoA over acetyl-CoA” value in series [2] (from Table 4) is reported as 73 fold. The “preference for butyryl-CoA over acetyl-CoA” value in series [3] (from Table 4) is reported as 8.5 fold.

B1: AdhE2-ADH (alcohol dehydrogenase domain of bifunctional AdhE2, wild type, GI 499193180, SEQ ID NO: 41) (Clostridium acetobutylicum) (protein)
chain: T1 sequence (Q9ANR5 1-858)
notes: alcohol dehydrogenase activity (C-terminal domain) measured
Take B1: in series [4], the Km was determined as 4.5 ± 0.3 mM. In addition, in series [5], the Km stood at 4 ± 0.4 mM, the kcat was determined as 2.9 ± 0.1 s⁻¹ and the catalytic efficiency (kcat/Km) amounted to 700 ± 20 M⁻¹ s⁻¹.

B2: AdhE2: bifunctional alcohol and aldehyde dehydrogenase, wild-type AdhE2 (protein, listed as Clostridium acetobutylicum)
chain: T1 sequence (Q9ANR5 1-858)
In series [6], B2 registered a butanol production of 4.5 g/L and an ethanol production of 3 g/L.

For orientation: kcat means the number of substrate molecules converted per active site and unit of time at saturation. Broadly, the Km is the concentration of substrate that gives half-maximal velocity. The kcat/Km is the second-order rate constant that governs catalysis at low substrate concentration.
